pKd, pKi: −log10 of the molar value. Read-outs that look alike come from different tables or passages of the source.
Assays:
NMDA-induced lethality = test: In vivo protection in the mouse against NMDA-induced lethality; parameters: species or system Swiss-Webster mouse; details: ip, 30 minutes before 200 mg/kg NMDA, eight mice per dose, Litchfield and Wilcoxin; for ED50: Mus musculus
Experimental: (§1) According to the method described by Ferkany et al. (1988), the test compounds were administered ip to four male Swiss-Webster mice (26-34 g) each, following 30 minutes later, 200 mg/kg of NMDA was administered to the mice each. […] Those compounds that protected three or more of the mice at any of the doses were evaluated further by determining the ED50 values using three or more doses with the eight mice per dose. The ED50 was estimated by the method of Litchfield and Wilcoxin (1949). Water-soluble compounds were dissolved in distilled water and administered in a volume of 10 ml/kg. Water-insoluble compounds were suspended in an aqueous solution of 0.5% methyl cellulose and administered in a volume of 20 ml/kg.

[1] = target: T1, μ-site of opioid receptor (Rattus norvegicus, UniProt P33535); test: In vitro binding, inhibition of [^3 H]DAGO binding to rat forebrain synaptic membranes; parameters: species or system Sprague-Dawley rat
T1 construct: Semipurified synaptic membranes were prepared according to the method of Toll et al. (1984); from tissue; host or cells: adult male Sprague-Dawley rat forebrain membranes
Experimental: (§2) As described below, the compounds of the invention were tested for their ability to inhibit binding of radiolabeled versions of these known ligands.
Semipurified synaptic membranes were prepared according to the method of Toll et al. (1984). Adult male Sprague-Dawley rats were decapitated, and the forebrains were removed, weighed, and homogenized in 20 volumes of […] Tris-HCl, pH 7.7. The homogenate was centrifuged at 27,000×G for 15 minutes, and the resulting pellet was resuspended in buffer and recentrifuged twice. The washed membranes were resuspended in buffer to obtain a membrane concentration of 7.2 mg brain weight/mL; the final concentration in each assay tube was 12.2 mg/2 mL. […] The reaction was stopped by filtration through GF/B filters using a Brandel Cell Harvester. After washing twice with 5 mL of ice cold buffer, the filters were suspended in 5 mL scintillation fluid, and the radioactivity was counted after standing at room temperature overnight.

[2] = target: T2, σ-site of opioid receptor (Cavia porcellus, UniProt Q60492); test: In vitro binding, inhibition of [^3 H]PPP binding to guinea pig brain homogenate; parameters: species or system Hartley guinea pig; details: for pKi: guinea pig brain homogenate, 0.6 nM [^3 H]PPP, 25° C., 1 hour
T2 construct: Hartley guinea pigs were decapitated, and the brains were removed and homogenized; from tissue; host or cells: Hartley guinea pig brain homogenate (washed membranes)
Experimental: as §2
Hartley guinea pigs were decapitated, and the brains were removed and homogenized in 20 volumes of 50 mM Tris-HCl using a Polytron homogenizer. The homogenate was centrifuged at 27,000×G for 15 minutes, and the pellet was resuspended in 50 mM Tris-HCl. The centrifugation procedure was repeated twice. The pellet was diluted to approximately 8 mg wet tissue/assay. Various concentrations of the test compounds (100 μL) and [^3 H]PPP (100 μL, final concentration 0.6 nM) were incubated with 1.8 mL of the tissue homogenate at 25° C. for 1 hour. Unlabeled PPP (final concentration 10 μM) was added to some tubes to determine nonspecific binding. The reaction was stopped by filtration through GF/B filters using a Brandel Cell Harvester. After washing twice with […] of ice cold Tris-HCl, the filters were suspended in 5 mL of scintillation fluid, and the radioactivity was counted after standing at room temperature overnight.
Table 1 summarizes the results of the in vitro binding studies using these three radioligands at the NMDA receptor site, μ-site and σ-site of opioid receptor, respectively.

NMDA receptor site [3] = test: In vitro binding, inhibition of [^3 H]MK-801 binding to rat forebrain synaptic membranes; parameters: species or system Sprague-Dawley rat; details: 3 nM [^3 H]MK-801, 50 μM glycine and glutamate, 37° C., 2 hours, read-out: Ki [^3 H]MK801
Experimental: as §2
Semipurified synaptic membranes were prepared according to the method of Bristow et al. (1986) with minor modifications. Sprague-Dawley rats were decapitated and the forebrains were removed, weighed, and homogenized in 20 volumes of 0.32M sucrose. The homogenate was centrifuged at 121×G for 10 min. The resulting supernatant was recentrifuged at 27,000×G for 15 min. The pellet was resuspended in 20 volumes of distilled water and this suspension was centrifuged at 8,000×G for 10 min. Both the supernatant and the buffy coat layer, removed with 2 mL of 5 mM Tris-Cl (pH 7.8), were pooled and centrifuged at 27,000×G for 15 min. The supernatant was removed, the pellet was covered with a small amount of 5 mM Tris-Cl, and the sample was frozen for at least 18 hrs at -20° C. Membranes were then washed four times in 5 mM Tris-Cl and finally resuspended in 25 mL. This preparation was used for the binding assay immediately or frozen for subsequent use.
The incubation was terminated by rapid filtration (Brandel Cell Harvester) over Whatman GF/B filters, which were then washed twice with 5 mL of 5 mM Tris-HCl. Radioactivity trapped on the filters was counted in 5 mL Scintiverse II at 50% efficiency in 7 mL minivials after standing at room temperature overnight.

NMDA receptor site [4] = details: shown previously; cited from earlier work
mice = test: Lethality of NMDA in mice; format: in vivo, Swiss-Webster mouse; details: NMDA at 200 mg/kg
Experimental: as §1

[5] = test system: σ-site of opioid receptor; details: shown previously; cited from earlier work
[6] = Ki [^3 H]DAGO, 2 nM [^3 H]DAGO, 25° C., 1 hour

T1 sequence (P33535 whole entry): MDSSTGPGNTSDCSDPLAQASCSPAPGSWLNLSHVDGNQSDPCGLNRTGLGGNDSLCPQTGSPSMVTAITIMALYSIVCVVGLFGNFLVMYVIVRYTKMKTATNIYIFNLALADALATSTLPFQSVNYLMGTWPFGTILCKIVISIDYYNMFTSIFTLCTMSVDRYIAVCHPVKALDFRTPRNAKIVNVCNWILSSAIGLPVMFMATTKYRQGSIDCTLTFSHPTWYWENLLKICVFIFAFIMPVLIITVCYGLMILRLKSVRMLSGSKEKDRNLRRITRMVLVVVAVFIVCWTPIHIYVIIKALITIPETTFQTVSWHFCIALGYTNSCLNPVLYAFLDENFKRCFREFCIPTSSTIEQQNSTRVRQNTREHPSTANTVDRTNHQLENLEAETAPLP
T2 sequence (Q60492 whole entry): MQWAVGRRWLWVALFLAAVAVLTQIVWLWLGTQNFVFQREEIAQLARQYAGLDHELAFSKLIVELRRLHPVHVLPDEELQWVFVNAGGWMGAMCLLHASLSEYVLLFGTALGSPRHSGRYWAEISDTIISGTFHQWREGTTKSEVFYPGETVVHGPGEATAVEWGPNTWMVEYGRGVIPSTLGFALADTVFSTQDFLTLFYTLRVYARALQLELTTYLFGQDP

Compound | ED50 (NMDA-induced lethality) [mg/kg] | pKi [1, 6] | pKi ([2]; read-out: Ki [^3 H]PPP) | pKi (NMDA receptor site [3]) | Mouse ED50 (NMDA-induced lethality) [mg/kg] | further results
CC(C1CO1)N1CC[C@]2(C)c3ccccc3C[C@H]1[C@H]2C (mixture of isomers) [(+)-BZ-5 (Mixture of Isomer B and C), (1S,5S,9S)-(+)-5,9-Dimethyl-2-(1-methyl-2,3-epoxypropyl)-6,7-benzomorphan] | 32.5 | 4.91 | 7.38 |  |  | 
C=CC(C)N1CC[C@]2(C)c3ccccc3C[C@H]1[C@H]2C (single isomer, unassigned; (+)) [(+)-BZ-2] | 22.1 | 5.02 | 7.00 | 5.88 |  | 
CC(C1CCC1)N1CC[C@]2(C)c3ccccc3C[C@H]1[C@H]2C (single isomer, unassigned; (+)) [(+)-BZ-3 (Isomer A)] |  | 4.93 | 8.92 | 6.66 | 16.4 | 
CC(C1CCC1)N1CC[C@]2(C)c3ccccc3C[C@H]1[C@H]2C (single isomer, unassigned; (+)) [(+)-BZ-3 (Isomer B)] |  | 4.87 | 8.09 | 5.44 | > 60 | 
C=CC(C1CC1)N1CC[C@]2(C)c3ccccc3C[C@H]1[C@H]2C (single isomer, unassigned; (+)) [(+)-BZ-4] | 24.1 | 4.69 | 6.89 | 4.94 |  | 
CC(C1CO1)N1CC[C@]2(C)c3ccccc3C[C@H]1[C@H]2C (single isomer, unassigned; (+)) [(+)-BZ-5 (Isomer A)] |  | 5.01 | 7.40 | 4.53 |  | 
CC(C1CO1)N1CC[C@]2(C)c3ccccc3C[C@H]1[C@H]2C (single isomer, unassigned; (+)) [(+)-BZ-5] |  | 5.24 | 7.96 | 4.94 |  | 
C#CC(C)N1CC[C@]2(C)c3ccccc3C[C@H]1[C@H]2C (single isomer, unassigned; (+)) [(+)-BZ-6 (Isomer A)] |  | 4.91 | 4.72 | 4.78 | > 50 | 
C#CC(C)N1CC[C@]2(C)c3ccccc3C[C@H]1[C@H]2C (single isomer, unassigned; (+)) [(+)-BZ-6 (Isomer B)] |  | 5.05 | 5.96 | 5.59 | 18.8 | 
CC(C1CC1)N1CC[C@]2(C)c3cc(F)ccc3C[C@H]1[C@H]2C (single isomer, unassigned; (+)) [(+)-BZ-14 (Isomer A)] |  | 6.14 | 7.85 | 6.07 | 6.1 | 
CC(C1CC1)N1CC[C@]2(C)c3cc(F)ccc3C[C@H]1[C@H]2C (single isomer, unassigned; (+)) [(+)-BZ-14 (Isomer B)] |  |  | 7.21 | 5.45 | 13 | pKi ([1]; read-out: Ki [^3 H]DAGO, 2 nM [^3 H]DAGO, 25° C., 1 hour): 5.30
CC(C1CC1)N1CC[C@]2(C)c3ccccc3C[C@H]1[C@H]2C (single isomer, unassigned; (+)) [(+)-IIId-7 (Isomer A)] |  | 5.52 | 7.70 | 6.12 | 6.8 | 
CC(C1CC1)N1CC[C@]2(C)c3ccccc3C[C@H]1[C@H]2C (single isomer, unassigned; (+)) [(+)-IIId-7 (Isomer B)] |  | 5.18 | 7.15 | 5.70 | 13.7 | 
C[C@@H]1[C@@H]2Cc3ccccc3[C@@]1(C)CCN2C(C1CC1)C1CC1 [(+)-BZ-1, (1S,5S,9S)-(+)-2-Dicyclopropylmethyl-5,9-dimethyl-6,7-benzomorphan] | 33.1 | 4.94 | 6.80 | 4.85 |  | 
CC(C)N1CC[C@]2(C)c3cc(F)ccc3C[C@H]1[C@H]2C [(+)-BZ-13, (1S,5S,9S)-(+)-2'-Fluoro-2-isopropyl-5,9-dimethyl-6,7-benzomorphan] | 9 | 4.69 | 6.59 | 5.38 |  | 
C[C@@H]1[C@@H]2Cc3ccccc3[C@@]1(C)CCN2C(C)(C)C [(+)-BZ-15A, (1S,5S,9S)-(+)-2-Tert-butyl-5,9-dimethyl-6,7-benzomorphan] | 10.7 | 5.14 | 6.01 | 5.59 |  | 
C[C@@H]1[C@@H]2Cc3ccccc3[C@@]1(C)CCN2O [(+)-BZ-17A, (1S,5S,9S)-(+)-2-hydroxy-5,9-dimethyl-6,7-benzomorphan] | 21.6 | 4.66 | 4.59 | 4.37 |  | 
C[C@@H]1[C@@H]2Cc3ccccc3[C@@]1(C)CCN2N(C)C [(+)-BZ-18, (1S,5S,9S)-(+)-5,9-dimethyl-2-dimethylamino-6,7-benzomorphan] | 14.4 |  | 6.09 | 5.34 |  | 
CC(C)N1CC[C@]2(C)c3cc(Cl)ccc3C[C@H]1[C@H]2C [(+)-BZ-26, (1S,5S,9S)-(+)-2'-Chloro-2-isopropyl-5,9-dimethyl-6,7-benzomorphan] | 12.2 | 4.93 | 7.13 | 4.89 |  | 
CC(C)N1CC[C@]2(C)c3ccccc3C[C@H]1[C@H]2C [(+)-IIId-6, (1S,5S,9S)-(+)-2-Isopropyl-5,9-dimethyl-6,7-benzomorphan] | 17.3 | 4.72 | 6.25 | 5.45 |  | 
COc1ccc2c(c1)[C@]13CCCC[C@@H]1[C@H](C2)N(C)CC3 [Dextromethorphan, reference compound] | 39 | 5.76 |  |  |  | pKi ([2]; Ki [^3 H]PPP): 6.82
CN1CC[C@@]23CCCC[C@@H]2[C@@H]1Cc1ccc(O)cc13 [Dextrorphan, reference compound] |  | 5.66 |  |  | 34.6 | 
C[C@]12N[C@H](Cc3ccccc31)c1ccccc12 [MK-801] |  |  |  |  |  | high-affinity ligand at the NMDA receptor site (NMDA receptor site [4]): high-affinity
CN[C@H](CC(=O)O)C(=O)O [NMDA, N-methyl-D-aspartate] |  |  |  |  |  | mice died (mice): approximately 90%
CCCN1CCCC(c2cccc(O)c2)C1 (stereo not shown) [PPP, reference compound] |  |  |  |  |  | high-affinity ligand at the σ site of the opioid receptor [5]: high-affinity; pKd [2]: 7.70

Reference: patent US5354758A, “Benzomorphans useful as NMDA receptor antagonists” (priority 1992, dated 1994)
